Earlier results as cited in patent US20140105862A1, “STREPTOMYCES MICROFLAVUS STRAINS AND METHODS OF THEIR USE TO CONTROL PLANT DISEASES AND PESTS” (priority 2012, published 2014).

How the values were obtained:
powdery mildew = settings: according to GB 1 507 193
[1] = test system: gram-positive, gram-negative bacteria and tubercule bacillus; settings: according to U.S. Pat. No. 3,849,398
[2] = test system: parasites on animals, such as pin worm; settings: according to U.S. Pat. No. 3,849,398

SMILES	antifungal activity (powdery mildew)	antibacterial activity [1]	parasiticidal action [2]
NC(N)=NCC(O)CC(O)(C(=O)O)[C@H]1O[C@@H](n2cc(CO)c(N)nc2=O)C=C[C@@H]1NC(=O)[C@@H](N)CO (stereo partly drawn) [Strain B-98891]	antifungal activity		
CNCC(=O)NC(CO)C(=O)NC1C(C(N)=O)OC(n2ccc(N)nc2=O)C(O)C1O (stereo not drawn) [gougerotin]		weak antibacterial activity	parasiticidal action
